In PMC6658769, “First-Time-in-Human Study and Prediction of Early Bactericidal Activity for GSK3036656, a Potent Leucyl-tRNA Synthetase Inhibitor for Tuberculosis Treatment” (Antimicrobial Agents and Chemotherapy, 2019):
≈ marks a conversion by molar mass, not a printed value. Where two headings read alike, the source gives them in different places.

Columns and labels:
[1] = test system: panel of mammalian cell lines; assay: Activity against a panel of mammalian cell lines; type: cell-based
[2] = Nonclinical toxicity studies (NOAEL exposure); type: in vivo; conditions: oral
Text: The principal findings observed in nonclinical toxicity studies following oral administration of GSK3036656 were cardiovascular and hematopoietic, with some minor changes in the liver, kidney, and thymus. The hematopoietic, kidney, liver, and thymus effects are considered either nonadverse or monitorable in the clinic. The structural cardiovascular changes that occurred in a single species at high doses were nonmonitorable but occurred at plasma concentrations where heart rate (HR) and blood pressure (BP) changes are recorded. Specific cardiovascular safety endpoints were included in the first-time-in-human (FTIH) study, including vital sign (HR and BP) stopping criteria.

[3] = in vitro; type: in vitro ADME; conditions: rat, plasma
[4] = target: P-glycoprotein (P-gp) (Homo sapiens, UniProt P08183); assay: P-gp substrate assessment; type: in vitro ADME; conditions: not told
P-glycoprotein (P-gp), sequence (P08183 whole entry): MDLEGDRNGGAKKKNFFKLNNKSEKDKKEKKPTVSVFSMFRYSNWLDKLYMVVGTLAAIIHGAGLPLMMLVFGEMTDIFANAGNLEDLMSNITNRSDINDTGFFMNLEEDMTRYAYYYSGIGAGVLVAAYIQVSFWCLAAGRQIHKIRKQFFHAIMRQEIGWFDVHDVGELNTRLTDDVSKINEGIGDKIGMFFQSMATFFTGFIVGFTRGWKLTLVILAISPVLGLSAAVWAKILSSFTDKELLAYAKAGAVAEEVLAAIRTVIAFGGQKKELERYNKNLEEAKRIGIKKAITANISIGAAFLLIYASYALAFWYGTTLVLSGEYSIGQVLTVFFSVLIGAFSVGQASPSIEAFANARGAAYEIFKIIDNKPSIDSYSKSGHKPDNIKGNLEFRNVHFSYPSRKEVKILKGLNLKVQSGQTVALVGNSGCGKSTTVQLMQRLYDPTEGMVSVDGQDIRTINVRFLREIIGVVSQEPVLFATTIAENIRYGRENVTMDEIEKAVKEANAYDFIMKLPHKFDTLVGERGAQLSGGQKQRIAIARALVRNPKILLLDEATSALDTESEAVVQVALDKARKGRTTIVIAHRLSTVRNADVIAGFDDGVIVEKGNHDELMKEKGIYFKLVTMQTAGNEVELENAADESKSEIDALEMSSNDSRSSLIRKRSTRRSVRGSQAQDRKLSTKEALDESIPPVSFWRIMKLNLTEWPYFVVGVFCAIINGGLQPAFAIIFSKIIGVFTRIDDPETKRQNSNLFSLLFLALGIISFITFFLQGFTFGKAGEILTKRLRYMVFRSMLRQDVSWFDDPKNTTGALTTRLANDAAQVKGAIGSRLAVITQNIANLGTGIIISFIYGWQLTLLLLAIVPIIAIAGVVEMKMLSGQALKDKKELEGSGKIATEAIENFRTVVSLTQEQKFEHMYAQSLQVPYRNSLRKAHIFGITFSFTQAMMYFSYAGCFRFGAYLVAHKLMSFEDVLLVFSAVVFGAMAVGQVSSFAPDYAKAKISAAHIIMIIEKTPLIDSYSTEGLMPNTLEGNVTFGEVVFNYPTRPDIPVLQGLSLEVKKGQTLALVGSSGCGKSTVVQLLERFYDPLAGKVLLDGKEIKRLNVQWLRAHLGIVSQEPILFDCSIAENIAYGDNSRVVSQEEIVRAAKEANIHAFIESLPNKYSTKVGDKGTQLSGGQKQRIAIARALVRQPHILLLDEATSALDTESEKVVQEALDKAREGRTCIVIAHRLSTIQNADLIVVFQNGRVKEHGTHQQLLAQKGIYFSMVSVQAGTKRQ

[5] = target: breast cancer resistance protein (Homo sapiens, UniProt Q9UNQ0); assay: BCRP substrate assessment; type: in vitro ADME; conditions: in vitro
breast cancer resistance protein, sequence (Q9UNQ0 whole entry): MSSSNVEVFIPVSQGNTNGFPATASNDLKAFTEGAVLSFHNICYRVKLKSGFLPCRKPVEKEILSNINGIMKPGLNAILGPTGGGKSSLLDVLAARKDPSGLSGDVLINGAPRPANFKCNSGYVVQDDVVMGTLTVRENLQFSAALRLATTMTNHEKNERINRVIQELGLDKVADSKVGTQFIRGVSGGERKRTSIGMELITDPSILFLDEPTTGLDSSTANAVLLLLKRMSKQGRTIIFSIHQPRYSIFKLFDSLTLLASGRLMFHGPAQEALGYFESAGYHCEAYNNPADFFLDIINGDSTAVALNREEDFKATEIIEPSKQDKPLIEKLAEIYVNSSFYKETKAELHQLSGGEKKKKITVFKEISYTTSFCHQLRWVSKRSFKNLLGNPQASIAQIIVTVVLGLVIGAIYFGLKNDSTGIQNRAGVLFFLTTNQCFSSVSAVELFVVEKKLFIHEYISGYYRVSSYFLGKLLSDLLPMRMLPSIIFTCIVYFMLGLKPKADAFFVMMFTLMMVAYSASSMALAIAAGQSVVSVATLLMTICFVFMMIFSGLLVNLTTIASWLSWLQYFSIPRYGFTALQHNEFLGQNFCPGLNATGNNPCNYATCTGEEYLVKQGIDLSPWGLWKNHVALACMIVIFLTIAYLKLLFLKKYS

[6] = target: T1, OATP1B1 (Homo sapiens, UniProt Q9Y6L6); assay: Direct inhibition of OATP1B1; type: in vitro ADME; conditions: in vitro
T1 sequence (Q9Y6L6 1-691): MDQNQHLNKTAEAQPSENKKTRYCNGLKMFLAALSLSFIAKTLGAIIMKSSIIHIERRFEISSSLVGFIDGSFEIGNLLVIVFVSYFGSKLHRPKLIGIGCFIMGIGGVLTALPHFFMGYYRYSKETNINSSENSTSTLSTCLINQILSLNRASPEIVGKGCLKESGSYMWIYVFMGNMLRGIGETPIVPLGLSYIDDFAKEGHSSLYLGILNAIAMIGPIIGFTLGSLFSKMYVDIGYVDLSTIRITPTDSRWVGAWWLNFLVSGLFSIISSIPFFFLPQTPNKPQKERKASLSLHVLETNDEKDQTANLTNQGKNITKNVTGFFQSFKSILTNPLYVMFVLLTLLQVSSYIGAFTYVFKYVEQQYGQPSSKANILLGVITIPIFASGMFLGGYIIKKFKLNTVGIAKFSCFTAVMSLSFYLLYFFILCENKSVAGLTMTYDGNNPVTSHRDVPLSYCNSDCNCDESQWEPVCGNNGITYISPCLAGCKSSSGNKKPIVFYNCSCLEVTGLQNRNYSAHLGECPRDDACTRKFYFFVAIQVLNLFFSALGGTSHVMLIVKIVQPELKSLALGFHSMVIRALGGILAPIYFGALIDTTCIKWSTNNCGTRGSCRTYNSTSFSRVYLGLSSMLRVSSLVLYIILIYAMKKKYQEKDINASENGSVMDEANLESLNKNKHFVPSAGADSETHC

[7] = mouse, in vivo
[8] = test system: M. tuberculosis fast-growing and slow-growing populations; assay: PK/PD parameters estimated from acute and chronic mouse infection models; type: in vivo; conditions: for EC50: Mycobacterium tuberculosis
[9] = test system: M. tuberculosis bacterial strain H37Rv; set-up: method as in PMID 28953378; conditions: in vitro; cited from earlier work
[10] = target: M. tuberculosis enzyme leucyl-tRNA synthetase (LeuRS); set-up: method as in PMID 28953378; conditions: LeuRS aminoacylation assay; cited from earlier work
[11] = human, in vivo
[12] = clinical; conditions: human, in vivo, po
[13] = clinical; conditions: human, in vivo

NC[C@H]1OB(O)c2c(OCCO)ccc(Cl)c21 [GSK3036656, (S)-3-(aminomethyl)-4-chloro-7-(2-hydroxyethoxy)benzo[c][1,2]oxaborol-1(3H)-ol]
activity against a panel of mammalian cell lines [1]: inactivity | AUC ([2]; plasma): 4900 ng·h/mL | Cmax ([2]; serum): < 443 ng/mL | fraction unbound [3]: 0.688 | P-gp substrate [4]: not a P-glycoprotein (P-gp) substrate | substrate specificity for breast cancer resistance protein [5]: lack of substrate specificity | direct inhibition of OATP1B1 [6]: minimal evidence for direct inhibition | oral bioavailability [7]: very high | EC50 ([8]; fast-growing population, SE = 13%, read-out: EC50-F in mouse): 0.0156 µg/mL (≈ 0.0606 µM) | EC50 ([8]; slow-growing population, SE = 23%, read-out: EC50-S in mouse): 0.0317 µg/mL (≈ 0.123 µM) | Emax-S (maximum killing rate against a slow-growing population) ([8]; fixed to estimated value from mouse infection models): 0.0037 (FIX)^b h^−1 | MIC [9]: 0.0235 µg/mL (≈ 0.0913 µM) | 50% inhibitory concentration (IC50) [10]: 0.0588 µg/mL | Absorption lag time, bootstrap median estimate [11]: 0.24 h | Absorption lag time, estimate (%SE) [11]: 0.235 (3) h | Ka, bootstrap median estimate [11]: 0.95 h⁻¹ | Ka, estimate (%SE) [11]: 0.925 (23) h^−1 | Residual variability (Prop), bootstrap median estimate [11]: 12.6% | Residual variability (Prop), estimate (%SE) [11]: 12.9 (16) % | AUC(0-inf) ([12]; both, 5 mg): 1400 ng·h/mL | AUC(0-t) ([12]; both, 5 mg): 771 ng·h/mL | Cmax ([12]; both, 5 mg): 49.1 ng/mL | Tmax ([12]; both, 5 mg): 1.1 h | AUC(0-inf) ([12]; both, 15 mg): 3800 ng·h/mL | AUC(0-t) ([12]; both, 15 mg): 3250 ng·h/mL | Cmax ([12]; both, 15 mg): 178 ng/mL | AUC(0-inf) ([12]; 25 mg): 6560 ng·h/mL | AUC(0-t) ([12]; 25 mg): 5690 ng·h/mL | Cmax ([12]; 25 mg): 207 ng/mL | Tmax ([12]; 25 mg): 1.1 h | AUC ([13]; both, 15 mg, steady-state AUC (on average)): 4460 ng·h/mL | AUC(0-t) ([13]; po, 5 mg): 486 ng·h/mL | Cmax ([13]; po, 5 mg): 48.4 ng/mL | Cmax at 14 days ([13]; po, 5 mg): 97 ng/mL | Tmax ([13]; po, 5 mg): 1.3 h | Tmax at 14 days ([13]; po, 5 mg): 0.8 h | AUC ([13]; po, 5 mg, AUC(Ro), geometric LS mean, Ref): 486 ng·h/mL | AUC ([13]; po, 5 mg, AUC(Ro), geometric LS mean, Test): 1390 ng·h/mL | AUC ([13]; po, 5 mg, Geometric mean AUC0–τ (%CVb)): 1390 ng·h/mL | AUC(0-t) ([13]; po, 15 mg): 1890 ng·h/mL | Cmax ([13]; po, 15 mg): 179 ng/mL | Cmax at 14 days ([13]; po, 15 mg): 310 ng/mL | Tmax at 14 days ([13]; po, 15 mg): 0.8 h | AUC ([13]; po, 15 mg, AUC(Ro), geometric LS mean, Ref): 1890 ng·h/mL | AUC ([13]; po, 15 mg, AUC(Ro), geometric LS mean, Test): 4460 ng·h/mL | AUC ([13]; po, 15 mg, Geometric mean AUC0–τ (%CVb)): 4460 ng·h/mL
